Where a SMILES comes first, the peptide text is derived from it.

Type in all cases: cell-based
For experiment [1], the system named is Micrococcus luteus (SK58). Put plainly: Carbohydrate Screening Test Method (Biolog phenotype microarray), Bacteria Code E. As to conditions: for Carbohydrate Screening Results, Bacteria Code E: Commensal, carbon microarray plate, OD 600 nm, 36 hr, 33° C., positive = more than 0.05 OD units above zero, blank cell = not utilized. The source says:
(§1) After creating desired ratios of various commensal skin bacteria in a healthy skin microbiome, 188 different carbohydrate sources were screened as the next step in determining potential prospects for skin microbiota balancing agents. The screening process was set up to determine which carbohydrate sources promoted commensal and/or pathogenic bacteria as well as to obtain individual and combinations of carbohydrate sources that could serve as microbiota balancing agents that can support or maintain the healthy proportions of commensal skin bacteria of Corynebacterium, Staphylococcus, and Micrococcus. The screening was conducted utilizing Biolog phenotype microarray plates (Hayward, Calif.). Table 1 provides a coded list of the commensal and pathogenic skin bacteria that the carbohydrates were screened against.
(§2) The Bacteria Codes B, D, E, I, and J are commensal bacteria and are shaded in Table 2 for references purposes. The bacteria codes were each placed in a carbon microarray plate and screened through the Carbohydrate Screening Test Method, as described in the Test Methods section herein. If a particular bacteria code utilized a specific carbohydrate source as described in the Carbohydrate Screening Test Method, then the corresponding cell in Table 2 was marked with a Y (short for “Yes”).
(§3) To do so, the respective microarray data for the 79 carbohydrate sources was run through the GrowthRates 2.1 program to obtain growth parameters, such as growth rates and maximum yield data as described by the Belingham Research Institute, Hall, B. G., H. Acar and M. Barlow. 2014 Growth Rates Made Easy. Mol. Biol. Evol. 31:232-238 doi:10.1093/molbev/mst197. The max yield parameters generated were utilized to calculate ratios of tested commensal bacteria. The ratios calculated were compared back to the desired ratios identified above (Corynebacterium to Staphylococcus of 1.3, Corynebacterium to Micrococcus of 1.4, and Staphylococcus to Micrococcus of 1.1).
(§4) As an example of this methodology used to calculate the commensal bacteria ratios and the difference between the calculated ratios and the desired ratios, an example code from Table 3 will be described. […] The max yields were then used to calculate ratios the bacteria would reach in a co-culture.

For experiment [2], the system named is Corynebacterium jeikum (ATCC 33033). Put plainly: Carbohydrate Screening Test Method (Biolog phenotype microarray), Bacteria Code B. As to conditions: for Carbohydrate Screening Results, Bacteria Code B: Commensal, carbon microarray plate, OD 600 nm, 36 hr, 33° C., positive = more than 0.05 OD units above zero, blank cell = not utilized. Here is the method:
The screening process was set up to determine which carbohydrate sources promoted commensal and/or pathogenic bacteria as well as to obtain individual and combinations of carbohydrate sources that could serve as microbiota balancing agents that can support or maintain the healthy proportions of commensal skin bacteria of Corynebacterium, Staphylococcus, and Micrococcus. The screening was conducted utilizing Biolog phenotype microarray plates (Hayward, Calif.). Table 1 provides a coded list of the commensal and pathogenic skin bacteria that the carbohydrates were screened against.
as §2
as §3, with “2014 Growth Rates Made Easy.” left out, “31:232-238 doi:10.1093/molbev/mst197.” left out
as §4
A passage of the culture was made using a sterile swab and streaked onto two M9*2 agar plates to prepare the incubated culture for the phenotype microarray pate according to Table 4.
(§5) All cultures were harvested and washed before inoculation into the carbon microarray plate (BiOLOG, Hayward Calif.), with Biolog Plates PM1 and PM2 each having a source definition of Carbon. The bacteria on the M9*2 agar was suspended via agitation with an inoculating loop in 1 mL of M9*1 media for collection in a 1.7 mL micro centrifuge tube, as noted in Table 4.

The subject of experiment [3] is Klebsiella pneumoniae (ATCC BAA-2146). As to conditions: Pathogenic; carbon microarray plate, OD 600 nm, 36 hr, 33° C.; positive = more than 0.05 OD units above zero; blank cell = not utilized.
Source text: as §1
Table 2 provides the results of screening various carbohydrate sources against the commensal and pathogenic bacteria codes listed in Table 1. The Bacteria Codes B, D, E, I, and J are commensal bacteria and are shaded in Table 2 for references purposes. The bacteria codes were each placed in a carbon microarray plate and screened through the Carbohydrate Screening Test Method, as described in the Test Methods section herein. If a particular bacteria code utilized a specific carbohydrate source as described in the Carbohydrate Screening Test Method, then the corresponding cell in Table 2 was marked with a Y (short for “Yes”). […] Many of the carbohydrate sources were utilized by both commensal and pathogenic bacteria, and as such, would not provide an advantage for selective growth of the commensal bacteria. However, some of the carbohydrate sources were only used by commensal bacteria and were identified for further testing as described herein.
The study employed 10 representative skin bacteria; Staphylococcus epidermidis ATCC 14990, Staphylococcus epidermidis M23864:W2, Staphylococcus aureus ATCC 6538, Staphylococcus aureus ATCC 25904 (Newman), Pseudomonas aeruginosa ATCC 9027, Micrococcus luteus ATCC […], Micrococcus luteus SK58, Klebsiella pneumoniae ATCC BAA-2146, Corynebacterium amycolatum SK46, and Corynebacterium minutissimum ATCC 23348. Cultures were started from freezer bead stocks by placing a single bead into 20 mL of tryptic soy broth (TSB) for all organisms except C. amycolatum SK46 and C. minutissimum ATCC 23348, which were placed into brain heart infusion (BHI) broth. Cultures were grown for about 24 hr at 37° C. except M. luteus ATCC 49732 and M. luteus SK58, which were grown at 30° C. A passage of the culture was made using a sterile swab and streaked onto two M9*2 agar plates to prepare the incubated culture for the phenotype microarray pate according to Table 4. Plates were incubated for about 24 hr at 37° C. except for M. luteus ATCC 49732 and M. luteus SK58, which were incubated at 30° C. for 24 hr.
as §5, with “4. The bacteria was suspended again in M9*1 media, agitated, and collected into the same 1.7 mL microcentrifuge tube used in the previous step. The tube was centrifuged for 5 minutes at 4,000×G, supernatant decanted, the pellet was resuspended in 1 mL of M9*1 media, and vortex. This washing process was repeated for a total of 4 times.” for “4.”
A tenfold dilution in M9*1 media was performed using 1 mL of the washed bacterial culture. Of the tenfold dilution 200 μL was placed in an untreated 96-well plate (Falcon, Pasadena Tx.) for an initial optical density (OD) reading at a wavelength of 600 nm. The OD was used to correlate to colony forming units (CFU) per milliliter by using linear regression lines for each organism. […]

Regarding `N[C@@H](C(=O)O)[C@@H](O)[C@H](O)[C@H](O)CO` [D-Glucosaminic Acid], the “Carbohydrate Screening Results, Bacteria Code E” value in experiment [1] was “Y”.

Turning to `O=C(O)CO` [Glycolic Acid], the “Carbohydrate Screening Results, Bacteria Code B” value in experiment [2] is reported as “Y”. Also, the “Carbohydrate Screening Results, Bacteria Code E” value in experiment [1] is reported as “Y”. With `OC[C@@H](O)[C@H](O)[C@H](O)[C@@H](O)CO` [Dulcitol], the “Carbohydrate Screening Results, Bacteria Code B” value in experiment [2] is “Y”. In addition, in experiment [1], the “Carbohydrate Screening Results, Bacteria Code E” value was “Y”. On to `O=CO` [Formic Acid], for which, in experiment [2], the “Carbohydrate Screening Results, Bacteria Code B” value was “Y”. Besides, in experiment [1], the “Carbohydrate Screening Results, Bacteria Code E” value is given as “Y”.

Consider `CC(=O)N[C@H]1[C@@H](O)[C@H](O)[C@@H](CO)O[C@H]1O` [N-Acetyl-β-D-Mannosamine], for which the “Carbohydrate Screening Results, Bacteria Code B” value in experiment [2] was “Y”. The “Carbohydrate Screening Results, Bacteria Code E” value in experiment [1] was “Y”.

With `CCC(=O)C(=O)O` [α-Keto-Butyric Acid], in experiment [2], the “Carbohydrate Screening Results, Bacteria Code B” value was “Y”.

As for `O=C(O)[C@@H]1CCCN1` [L-Proline], the “Carbohydrate Screening Results, Bacteria Code B” value in experiment [2] was “Y”. Further, the “Carbohydrate Screening Results, Bacteria Code E” value in experiment [1] is listed as “Y”. Take `CC(O)CO` (centres unmarked) [1,2-Propanediol]: the “Carbohydrate Screening Results, Bacteria Code B” value in experiment [2] was “Y”. For the same molecule, the “Carbohydrate Screening Results, Bacteria Code E” value in experiment [1] was “Y”. Take `O=CC(=O)O` [Glyoxylic Acid]: the “Carbohydrate Screening Results, Bacteria Code B” value in experiment [2] was “Y”.

On to `O=C(O)[C@H](O)[C@@H](O)[C@H](O)[C@H](O)CO[C@H]1O[C@H](CO)[C@H](O)[C@H](O)[C@H]1O` [Melibionic Acid], for which the “Carbohydrate Screening Results, Bacteria Code C” value in experiment [3] is listed as “Y”. Take `CCC(=O)O` [Propionic Acid]: in experiment [2], the “Carbohydrate Screening Results, Bacteria Code B” value was “Y”. In addition, the “Carbohydrate Screening Results, Bacteria Code E” value in experiment [1] is reported as “Y”. Take `O=C(O)CC(O)(CC(=O)O)C(=O)O` [Citric Acid]: in experiment [2], the “Carbohydrate Screening Results, Bacteria Code B” value is “Y”. On to `NCC(=O)N[C@@H](CCC(=O)O)C(=O)O` [Glycyl-L-Glutamic Acid] (H-Gly-Glu-OH), for which the “Carbohydrate Screening Results, Bacteria Code E” value in experiment [1] is reported as “Y”. As to `NCCc1ccccc1` [Phenylethyl-amine], the “Carbohydrate Screening Results, Bacteria Code B” value in experiment [2] was “Y”. For the molecule `O=C(O)/C=C/C(=O)O` [Fumaric Acid], in experiment [2], the “Carbohydrate Screening Results, Bacteria Code B” value is listed as “Y”. Moreover, in experiment [1], the “Carbohydrate Screening Results, Bacteria Code E” value was “Y”.

Regarding `NC(=O)[C@@H](O)[C@@H](O)[C@H](O)[C@@H](O)C=O` [Glucuronamide], the “Carbohydrate Screening Results, Bacteria Code B” value in experiment [2] was “Y”. In experiment [1], the “Carbohydrate Screening Results, Bacteria Code E” value is listed as “Y”. Take `OC[C@H]1O[C@@H](Oc2ccc(O)cc2)[C@H](O)[C@@H](O)[C@@H]1O` [Arbutin]: the “Carbohydrate Screening Results, Bacteria Code C” value in experiment [3] is reported as “Y”. Still for that read-out and setting: under `OC[C@H]1O[C@H](OC[C@H]2O[C@H](O[C@]3(CO)O[C@H](CO)[C@@H](O)[C@@H]3O)[C@H](O)[C@@H](O)[C@@H]2O)[C@H](O)[C@@H](O)[C@H]1O` [D-Raffinose] stands “Y”. For the molecule `O=C1CCC(C(=O)O)O1` (stereo not drawn) [α-Hydroxy Glutaric Acid-γ-Lactone], the “Carbohydrate Screening Results, Bacteria Code B” value in experiment [2] is “Y”. In addition, the “Carbohydrate Screening Results, Bacteria Code E” value in experiment [1] is given as “Y”. On to `C[C@@H](O)[C@H](N)C(=O)O` [L-Threonine], for which the “Carbohydrate Screening Results, Bacteria Code B” value in experiment [2] is listed as “Y”. For the same molecule, the “Carbohydrate Screening Results, Bacteria Code E” value in experiment [1] is reported as “Y”. Regarding `C[C@H](N)C(=O)NCC(=O)O` [L-Alanyl-Glycine] (H-Ala-Gly-OH), in experiment [2], the “Carbohydrate Screening Results, Bacteria Code B” value is “Y”. The “Carbohydrate Screening Results, Bacteria Code E” value in experiment [1] is reported as “Y”. Tween 40: the “Carbohydrate Screening Results, Bacteria Code B” value in experiment [2] is “Y”. With `NCC(=O)N[C@@H](CC(=O)O)C(=O)O` [Glycyl-L-Aspartic Acid] (H-Gly-Asp-OH), in experiment [1], the “Carbohydrate Screening Results, Bacteria Code E” value is given as “Y”. For the molecule `O=C(O)CCC(=O)C(=O)O` [α-Keto-Glutaric Acid], the “Carbohydrate Screening Results, Bacteria Code B” value in experiment [2] is reported as “Y”.

In the case of `Nc1ncnc2c1ncn2[C@@H]1O[C@H](CO)[C@@H](O)[C@H]1O` [Adenosine], the “Carbohydrate Screening Results, Bacteria Code B” value in experiment [2] is on record as “Y”. The “Carbohydrate Screening Results, Bacteria Code E” value in experiment [1] was “Y”. For the molecule `O=C(O)C[C@H](O)C(=O)O` [L-Malic Acid], the “Carbohydrate Screening Results, Bacteria Code B” value in experiment [2] was “Y”. Besides, the “Carbohydrate Screening Results, Bacteria Code E” value in experiment [1] is reported as “Y”. In the case of `O=C(O)C(O)C(O)C(=O)O` (centres unmarked) [m-Tartaric Acid], in experiment [2], the “Carbohydrate Screening Results, Bacteria Code B” value is on record as “Y”. As to `N[C@H](CC(=O)O)C(=O)O` [D-Aspartic Acid], the “Carbohydrate Screening Results, Bacteria Code B” value in experiment [2] is “Y”. Moreover, the “Carbohydrate Screening Results, Bacteria Code E” value in experiment [1] was “Y”. As to `C[C@@H](N)C(=O)O` [D-Alanine], the max yield in experiment [2] (C. jeikeium, GrowthRates 2.1 on microarray data) was found to be 0.157; in experiment [1] (M. luteus SK58, GrowthRates 2.1 on microarray data), 0.098. Moreover, in experiment [2], the “Carbohydrate Screening Results, Bacteria Code B” value was “Y”. The “Carbohydrate Screening Results, Bacteria Code E” value in experiment [1] is given as “Y”.

In the case of `C[C@H](N)C(=O)O` [L-Alanine], in experiment [1], the “Carbohydrate Screening Results, Bacteria Code E” value is reported as “Y”. In the case of `CCC(O)C(=O)O` (stereo not drawn) [α-Hydroxy Butyric Acid], the “Carbohydrate Screening Results, Bacteria Code B” value in experiment [2] is reported as “Y”. `CC(=O)CC(=O)O` [Acetoacetic Acid]: the “Carbohydrate Screening Results, Bacteria Code B” value in experiment [2] is “Y”. Besides, the “Carbohydrate Screening Results, Bacteria Code E” value in experiment [1] is “Y”. `O=C(O)CC(Br)C(=O)O` (centres unmarked) [Bromo Succinic Acid]: the “Carbohydrate Screening Results, Bacteria Code B” value in experiment [2] is listed as “Y”. Take `C[C@H](O)[C@@H](N)C(=O)O` [D-Threonine]: in experiment [2], the “Carbohydrate Screening Results, Bacteria Code B” value is recorded as “Y”. Also, the “Carbohydrate Screening Results, Bacteria Code E” value in experiment [1] is recorded as “Y”. On to `O=C(O)[C@@H](O)[C@H](O)[C@H](O)[C@@H](O)C(=O)O` [Mucic Acid], for which the “Carbohydrate Screening Results, Bacteria Code B” value in experiment [2] was “Y”. `O=C(O)CC(CC(=O)O)C(=O)O` [Tricarballylic Acid]: the “Carbohydrate Screening Results, Bacteria Code E” value in experiment [1] was “Y”.

Values taken from patent publication US20210308034A1, “PREBIOTIC COMPOSITIONS AND METHODS FOR MAINTAINING A HEALTHY SKIN MICROBIOTA” (KIMBERLY-CLARK WORLDWIDE, INC., priority 2018, published 2021).
